Laboratory results taken from patent publication US20070172957A1, “Methods of identifying anti-inflammatory macrolides” (TAISHO PHARMACEUTICAL CO., LTD., priority 2004, published 2007).

System: tobacco smoke-induced pulmonary emphysema
Assay: Model mice with tobacco smoke-induced pulmonary emphysema
Type: in vivo
Conditions: for pulmonary alveolus size: 6 months, mean ± SE; for pulmonary emphysema rate: relative to non-smoking
Protocol: The model mice with tobacco smoke-induced pulmonary emphysema mimicking human pulmonary emphysema were constructed according to the method as described in Hautamaki, R. D. et al., Science 1997, 277: 2002-2004 or Shapiro, S. D. et al., Am. […] Specifically, C57black/6 female mice of 12-weeks old were exposed to tobacco smoke at two cigarettes per day, 6 days per week for 6 months.
Administration of clarithromycin was carried out orally at the rate of 25, 50 or 100 […] twice daily (morning and evening) during the tobacco smoke exposure period. The plasma AUC0-8 of clarithromycin obtained when 50 mg/kg was singly administered to the mice was 2.677 μg·hr/ml while the plasma AUC0-8 of clarithromycin obtained when 200 mg of clarithromycin was singly administered to a normal human subject was 8.98 μg·hr/ml. The former concentration was substantially lower than the latter one and was an adequate concentration to be used clinically.
The index of the improvement to the pulmonary emphysema condition followed the mothod as described in Hautamaki, R. D. et al., ibid. or Shapiro, S. D. et al., ibid.
Hematoxylin eosin-stained pathological specimens were prepared from the model mice and ten visual fields under a microscope were randomly selected, where the average sizes of pulmonary alveoli were measured. An increase in the average size of pulmonary alveolus is considered as an index of the destruction of pulmonary alveoli, i.e., the pulmonary emphysema condition.
The cell counts of inflammatory cells (microphages and neutrophiles) in the bronchoalveolar lavage fluids after six months' exposure were measured to provide an index of the inflammatory condition in the model mice with tobacco smoke-induced pulmonary emphysema.
It has been reported that as pulmonary emphysema progresses, pulmonary functions deteriorate. It has also been known that the pulmonary compliance, which is an index of pulmonary functions, increases in model mice with tobacco smoke-induced pulmonary emphysema. Thus, the pulmonary compliance was measured in the model mice with tobacco smoke-induced pulmonary emphysema after six months' exposure.

Question: Which results are given for CC[C@H]1OC(=O)[C@H](C)[C@@H](O[C@H]2C[C@@](C)(OC)[C@@H](O)[C@H](C)O2)[C@H](C)[C@@H](O[C@@H]2O[C@H](C)C[C@H](N(C)C)[C@H]2O)[C@](C)(OC)C[C@@H](C)C(=O)[C@H](C)[C@@H](O)[C@]1(C)O [clarithromycin]?
Answer: cell count of macrophages in bronchoalveolar lavage fluids (after six months' exposure, FIG. 4A): reduced; cell count of neutrophiles in bronchoalveolar lavage fluids (after six months' exposure, FIG. 4B): reduced; pulmonary compliance (after six months' exposure, FIG. 5): recovered; improvement factor (smoking + CAM 25 mg/kg): 47%; pulmonary alveolus size (smoking + CAM 25 mg/kg orally twice daily): 35.60 ± 1.425 μm; pulmonary emphysema rate (smoking + CAM 25 mg/kg): 10.6%; improvement factor (smoking + CAM 50 mg/kg): up to 87%; pulmonary alveolus size (smoking + CAM 50 mg/kg orally twice daily): 33.16 ± 0.890 μm; improvement factor (smoking + CAM 50 mg/kg, listed as CAM): 85%; pulmonary emphysema rate (smoking + CAM 50 mg/kg): 3%; improvement factor (smoking + CAM 100 mg/kg): 66.5%; pulmonary alveolus size (smoking + CAM 100 mg/kg orally twice daily): 34.35 ± 0.936 μm; pulmonary emphysema rate (smoking + CAM 100 mg/kg): 6.7%
